Measured values: patent US20060194259A1, “Method for isolating an allosteric effector of a receptor” (priority 2002, published 2006)

Experiments:
receptor EGFP-NK2R [1] = target: T1, receptor EGFP-NK2R (UniProt P16610); assay: Reversion of the binding of NKA-Bo to EGFP-NK2R by fluorescence energy transfer; parameters: % al (max): maximum value observed for the increase in amplitude of the rapid dissociation rate; ns = n; other: 20 nM of NK; % al (at 10 μM); other: compou; fused on or other part: EGFP fused to the receptor as FRET donor; details: 20 nM NKA-Bo; increasing concentration of compound; 100% = NKA 10 μM
T1 sequence (P16610 1-390): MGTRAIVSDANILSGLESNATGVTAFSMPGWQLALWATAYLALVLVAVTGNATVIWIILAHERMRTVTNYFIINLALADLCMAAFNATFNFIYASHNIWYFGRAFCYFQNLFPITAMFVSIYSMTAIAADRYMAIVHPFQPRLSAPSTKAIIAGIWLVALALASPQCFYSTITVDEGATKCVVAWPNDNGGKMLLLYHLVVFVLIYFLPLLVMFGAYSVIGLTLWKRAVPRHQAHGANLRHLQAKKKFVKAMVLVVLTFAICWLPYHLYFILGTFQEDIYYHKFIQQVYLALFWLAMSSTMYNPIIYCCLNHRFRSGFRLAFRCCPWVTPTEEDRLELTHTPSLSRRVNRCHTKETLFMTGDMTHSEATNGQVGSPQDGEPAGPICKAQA
Source text: (§1) The amplitude of each relaxation is then given by the adjustment of the experimental traces.

[2] = tested on: cells not expressing the EGFP-NK2R receptor; assay: Calcium response on cells not expressing the receptor; format: cell-based; parameters: key: ns: not significant; ?: uniterpretable; details: Table 1
receptor EGFP-NK2R [3] = target: T1, receptor EGFP-NK2R; assay: Dissociation kinetics of NKA-Bo bound to EGFP-NK2R by fluorescence energy transfer; format: binding; parameters: % al (max): maximum value observed for the increase in amplitude of the rapid dissociation rate; ns = n; other: 20 nM of NK; % al (at 10 μM); other: compou; fused on or other part: EGFP fused to the receptor as FRET donor
Description: Dissociation (FIG. 4B): HEK 293 cells expressing the receptor EGFP-NK2R are put into suspension at a concentration of 1,000,000 cells/ml in Hepes physiological buffer (in mM: 137.5 NaCl; 1.25 MgCl2; 1.25 CaCl2; 6 KCl; 5.6 glucose; 10 Hepes; 0.4 NaH2PO4; 1% BSA (w/v); pH 7.4) and arranged in a 1 ml cuvette equipped with a magnetic stirrer on the cuvette holder of a SPEX fluorolog 3 spectrofluorimeter.
as §1

receptor EGFP-NK2R [4] = target: T1, receptor EGFP-NK2R; assay: Association kinetics of NKA-Bo with EGFP-NK2R by fluorescence energy transfer (rapid mixing); format: binding; parameters: % al (max): maximum value observed for the increase in amplitude of the rapid dissociation rate; ns = n; other: 20 nM of NK; % al (at 10 μM); other: compou; fused on or other part: EGFP fused to the receptor as FRET donor
Source text: Association (FIG. 4A): HEK 293 cells expressing the receptor EGFP-NK2R (NK2R marked with GFP) are put into suspension at a concentration of 2,000,000 cells/ml in Hepes physiological buffer (in mM: 137.5 NaCl; 1.25 MgCl2; 1.25 CaCl2; 6 KCl; 5.6 glucose; 10 Hepes; 0.4 NaH2PO4; 1% BSA (w/v); pH 7.4) and arranged in one of the reservoirs of the rapid mixing device. […] The observation chamber is arranged in a SPEX fluorolog 3 spectrofluorimeter. The temperature of the reservoir of the syringes as well as of the mixing and observation chamber is fixed at 21° C. The excitation wavelength of the observation chamber is fixed at 470 nm, and the fluorescence emission wavelength is fixed at 510 nm. The sampling frequency of the experimental points is fixed at 50 Hz (1 point every 20 msec). The content of the reservoirs is driven towards the mixing and observation chamber using a pneumatic device allowing a flow rate of 4 ml/sec and the evolution of the mixture is recorded continuously from the moment of stopping of the thrust of the pistons of the reservoirs. The reaction of association of NKA-Bo with the receptor EGFP-NK2R is detected in the form of a reduction in the intensity of fluorescence of the GFP carried by the receptor NK2R. The experimental trace is adjusted by a multiexponential curve of type y=λ1 exp (−k1app×T)+λ2 exp (−k2app×T)+“straight”, where λ1 and λ2 are the amplitudes of the rapid and slow relaxations, k1app and k2app are the apparent rate constants of rapid and slow association, T is time and “straight” is a mathematical correction of the signal drift. The values of λ1, λ2, k1app, k2app for a final concentration of NKA-BO of 100 nM are respectively 67%; 32%; 0.6 sec^−1 and 0.03 sec^−1. The correlation coefficient of the adjustment of the experimental curve is R=0.989.
The rapid binding of NKA-Bo, recorded at a concentration of 20 nM using the rapid mixing equipment, is broken down into a sum of two exponentials the rates (kapp) of which differ by a factor of 10. The rapid binding of NKA-Bo (kapp=0.095 sec^−1) represents 44% of the total binding signal, in the absence of A11 (50 μM), whereas it represents 52% of the total signal in the presence of A11. The slow binding is carried out in both cases with an apparent rate (kapp) equal to 0.0095 sec^−1, and an amplitude equal to […] in the absence of A11, and 48% in the presence of A11.

receptor EGFP-NK2R [5] = target: T2, receptor EGFP-NK2R (Homo sapiens, UniProt P21452); assay: Calcium response caused by NKA 4-10 TR7 in HEK 293 cells expressing EGFP-NK2R (indo-1); format: cell-based; details: read-out: 50%-effective dose of NKA 4-10 TR7 for the calcium response; without 805
T2 sequence (P21452 1-398): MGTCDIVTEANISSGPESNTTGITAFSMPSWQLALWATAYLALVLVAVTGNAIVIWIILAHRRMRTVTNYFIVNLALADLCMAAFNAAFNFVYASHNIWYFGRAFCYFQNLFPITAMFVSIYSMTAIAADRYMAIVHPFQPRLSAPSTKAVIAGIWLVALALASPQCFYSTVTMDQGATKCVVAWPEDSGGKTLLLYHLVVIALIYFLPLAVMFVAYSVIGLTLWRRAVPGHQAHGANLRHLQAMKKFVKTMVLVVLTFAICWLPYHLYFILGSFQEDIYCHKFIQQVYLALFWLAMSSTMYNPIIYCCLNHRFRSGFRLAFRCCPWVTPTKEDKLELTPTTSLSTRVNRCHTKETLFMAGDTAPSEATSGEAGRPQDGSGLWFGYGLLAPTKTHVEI
Description: The cells are put into suspension at a rate of 500,000 cells/ml in Hepes buffer and arranged in a spectrofluorimeter cuvette. The excitation wavelength is fixed at 355 nm and the emission is recorded at […].

receptor EGFP-NK2R [6] = target: T2, receptor EGFP-NK2R; assay: Dissociation of NKA4-10 TR7 from EGFP-NK2R by fluorescence energy transfer; format: binding; details: 10° C.; without 805
Description: (§2) The x-axis represents time in seconds and the y-axis represents fluorescence.
(§3) In the presence of 10 μM of 805, an acceleration of the dissociation is observed characterized by a modification of the amplitudes of the rapid (88%) and slow (12%) dissociation stages.

receptor EGFP-NK2R [7] = target: T1, receptor EGFP-NK2R; assay: as above; format: binding; parameters: % al (max): maximum value observed for the increase in amplitude of the rapid dissociation rate; ns = n; other: 20 nM of NK; % al (at 10 μM); other: compou; fused on or other part: EGFP fused to the receptor as FRET donor; details: 10° C.; without 805
Description: as §2, §3

[8] = in the presence of 50 μM compound, dissociation by non-fluorescent NKA
[9] = 20 nM NKA-Bo, 10 μM SR 48968, no effector

Compound: N#CCN(Cc1ccc(N)cc1)Cc1ccc2ccccc2c1 [A11, [(4-Amino-benzyl)-naphthalen-2-ylmethyl-amino]-acetonitrile]
- fraction of the NKA-Bo bound to its site displaced by the compound (receptor EGFP-NK2R [1]): 29%
- Ca Rep.: ability to evoke a calcium response on cells not expressing the EGFP-NK2R receptor [2]: ns
- % al (max): maximum value observed for the increase in amplitude of the rapid dissociation rate (receptor EGFP-NK2R [3]; Table 1, ns = not significant): ≧90%
- fraction of receptors in the low-affinity state (receptor EGFP-NK2R [3]; at 100 μM of effector, approximately 25% in the absence of effector): ~100%
- effect on the dissociation kinetics of NKA-Bo (receptor EGFP-NK2R [3]; dissociation by non-fluorescent NKA in the presence of compound): accelerating the dissociation rate
- amplitude of the rapid dissociation of NKA-Bo (% of total signal) (receptor EGFP-NK2R [3]; [8]): 78%
- amplitude of the slow dissociation of NKA-Bo (% of total signal) (receptor EGFP-NK2R [3]; [8]): 22%
- EC50 (receptor EGFP-NK2R [3]; read-out: EC50 (μM): concentration of compound causing a 50% increase (relative to the maximum value) in the percentage of the amplitude of the rapid dissociation rate, Table 1, dissociation of NKA-Bo from EGFP-NK2R, ns = not significant): 38 to 44 µM
- rapid binding of NKA-Bo, % of the total binding signal (receptor EGFP-NK2R [4]; 20 nM NKA-Bo, in the presence of A11 (50 μM), 44% in its absence): 52%
- slow binding of NKA-Bo, amplitude (receptor EGFP-NK2R [4]; 20 nM NKA-Bo, in the presence of A11 (50 μM), 66% in its absence): 48%

Compound: CSCC[C@H](NC(=O)[C@H](CC(C)C)NC(=O)CNC(=O)[C@@H](NC(=O)[C@H](Cc1ccccc1)NC(=O)[C@H](CO)NC(=O)[C@H](CC(=O)O)NC(=O)[C@@H](NC(=O)[C@H](CCCCN)NC(=O)[C@H](Cc1c[nH]cn1)NC(=O)CCc1ccc2n1[B-](F)(F)[N+]1=C(c3ccccc3)C=C(c3ccccc3)C1=C2)[C@@H](C)O)C(C)C)C(N)=O [NKA-Bo]
- λ1, amplitude of rapid dissociation of NKA-Bo (receptor EGFP-NK2R [3]; [9]): 40%
- λ2, amplitude of slow dissociation of NKA-Bo (receptor EGFP-NK2R [3]; [9]): 58%
- k1app, apparent rate constant of rapid association (receptor EGFP-NK2R [4]; NKA-BO 100 nM final, 21° C.): 0.6 s⁻¹
- k2app, apparent rate constant of slow association (receptor EGFP-NK2R [4]; NKA-BO 100 nM final, 21° C.): 0.03 s⁻¹
- λ1, amplitude of the rapid association relaxation (receptor EGFP-NK2R [4]; NKA-BO 100 nM final, 21° C.): 67%
- λ2, amplitude of the slow association relaxation (receptor EGFP-NK2R [4]; NKA-BO 100 nM final, 21° C.): 32%
- kapp of the rapid binding of NKA-Bo (receptor EGFP-NK2R [4]; NKA-Bo 20 nM): 0.095 s⁻¹
- kapp of the slow binding of NKA-Bo (receptor EGFP-NK2R [4]; NKA-Bo 20 nM, with or without A11): 0.0095 s⁻¹

Compound: NKA4-10 TR7: truncated neurokinin NKA4-10 marked in position 7 by Texas Red
- EC50 (receptor EGFP-NK2R [5]): ~20 nM
- amplitude of the rapid dissociation of NKA4-10 TR7 (receptor EGFP-NK2R [6]): 58%
- amplitude of the slow dissociation of NKA4-10 TR7 (receptor EGFP-NK2R [7]): 42%
